Reference: the supplement of paper PMC11061612

How the values were obtained:
[1] = system: KP-4 (Pancreatic Carcinoma); assay: Bliss excess, mean over the matrix (fraction); higher = more synergy
How it was run: (§1)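 Bliss excess equals the observed combination effect minus the expected value EA + EB − EA·EB, where EA and EB are the effects of each agent alone. Combination Emax is the second-highest inhibition within the matrix. Inhibition was scaled from CellTiter-Glo 2.0 luminescence, with 0 set by vehicle wells and 1 by blank wells, after 72 hours of two-drug dosing of cells plated in 1536-well plates.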

[2] = system: BxPC-3 (Pancreatic Carcinoma); assay: combination Emax (second highest fraction inhibited in the dose matrix, 72 h); higher = more inhibition; extreme values may be limits of the assay
How it was run: as §1

[3] = system: C-33-A (Cervical Carcinoma); assay: as above
How it was run: as §1

GAK (Melanoma) = assay: as above
How it was run: as §1

[4] = system: IA-LM (Non-Small Cell Lung Carcinoma); assay: as above
How it was run: as §1

IST-MEL1 (Melanoma) = assay: as above
How it was run: as §1

[5] = system: KP-4 (Pancreatic Carcinoma); assay: as above
How it was run: as §1

[6] = system: MDA-MB-415 (Breast Carcinoma); assay: as above
How it was run: as §1

[7] = system: MONO-MAC-6 (Acute Myeloid Leukemia); assay: as above
How it was run: as §1

[8] = system: MS-1 (Small Cell Lung Carcinoma); assay: as above
How it was run: as §1

[9] = system: NAMALWA (Burkitt's Lymphoma); assay: as above
How it was run: as §1

NCI-H226 (Mesothelioma) = assay: as above
How it was run: as §1

[10] = system: RCC-JW (Kidney Carcinoma); assay: as above
How it was run: as §1

[11] = system: SNU-423 (Hepatocellular Carcinoma); assay: as above
How it was run: as §1

[12] = system: NCI-H1876 (Small Cell Lung Carcinoma); assay: Bliss excess, mean over the matrix (fraction); higher = more synergy
How it was run: as §1

[13] = system: NCI-H596 (Other Solid Carcinomas); assay: as above
How it was run: as §1

[14] = system: OAW-28 (Ovarian Carcinoma); assay: as above
How it was run: as §1

[15] = system: SNU-407 (Colorectal Carcinoma); assay: as above
How it was run: as §1

[16] = system: NCI-H596 (Other Solid Carcinomas); assay: combination Emax (second highest fraction inhibited in the dose matrix, 72 h); higher = more inhibition; extreme values may be limits of the assay
How it was run: as §1

[17] = system: SNU-407 (Colorectal Carcinoma); assay: as above
How it was run: as §1

## N#Cc1cnc(Nc2cc(NC[C@H]3CNCCO3)c(C(F)(F)F)cn2)cn1 [SRA737] + C=CCn1c(=O)c2cnc(Nc3ccc(N4CCN(C)CC4)cc3)nc2n1-c1cccc(C(C)(C)O)n1 [AZD1775] (first compound max 10 µM, partner max 1 µM)
[1]
  Bliss excess: 0.0595
[2]
  combination Emax: 0.613
[3]
  combination Emax: 0.97
GAK (Melanoma)
  combination Emax: 0.841
[4]
  combination Emax: 0.311
IST-MEL1 (Melanoma)
  combination Emax: 0.655
[5]
  combination Emax: 0.597
[6]
  combination Emax: 0.318
[7]
  combination Emax: 1
[8]
  combination Emax: 0.926
[9]
  combination Emax: 0.988
NCI-H226 (Mesothelioma)
  combination Emax: 0.226
[10]
  combination Emax: 0.456
[11]
  combination Emax: 0.648

## C[C@@H](Nc1cc(F)cc(F)c1)c1cc(C(=O)N(C)C)cc2c(=O)cc(N3CCOCC3)oc12 [AZD8186] + CC(=O)c1c(C)c2cnc(Nc3ccc(N4CCNCC4)cn3)nc2n(C2CCCC2)c1=O [Palbociclib] (first compound max 10 µM, 7x7, partner max 10 µM)
[1]
  Bliss excess: 0.0976
[2]
  combination Emax: 0.347
[3]
  combination Emax: 0.353
GAK (Melanoma)
  combination Emax: 0.448
[4]
  combination Emax: 0.311
IST-MEL1 (Melanoma)
  combination Emax: 0.545
[5]
  combination Emax: 0.601
[6]
  combination Emax: 0.794
[7]
  combination Emax: 0.654
[8]
  combination Emax: 0.295
[9]
  combination Emax: 0.616
NCI-H226 (Mesothelioma)
  combination Emax: 0.297
[10]
  combination Emax: 0.588
[11]
  combination Emax: 0.454

## CC1(C)CCC(CN2CCN(c3ccc(C(=O)NS(=O)(=O)c4ccc(NCC5CCOCC5)c([N+](=O)[O-])c4)c(Oc4cnc5[nH]ccc5c4)c3)CC2)=C(c2ccc(Cl)cc2)C1 [Venetoclax] + CS(=O)(=O)CCNCc1ccc(-c2ccc3ncnc(Nc4ccc(OCc5cccc(F)c5)c(Cl)c4)c3c2)o1 [Lapatinib] (first compound max 1 µM, 7x7, partner max 10 µM)
[1]
  Bliss excess: -0.0168
[2]
  combination Emax: 0.244
[3]
  combination Emax: 0.444
GAK (Melanoma)
  combination Emax: 0.229
[4]
  combination Emax: 0.207
IST-MEL1 (Melanoma)
  combination Emax: 0.293
[5]
  combination Emax: 0.0862
[6]
  combination Emax: 0.242
[7]
  combination Emax: 0.353
[8]
  combination Emax: 0.473
[9]
  combination Emax: 0.25
NCI-H226 (Mesothelioma)
  combination Emax: 0.113
[10]
  combination Emax: 0.967
[11]
  combination Emax: 0.246

## Cc1cc2ncnn2cc1Nc1ncc2c(n1)n(C1CCOCC1)c(=O)n2C [AZD7648] + COc1cc([C@@H]2c3cc4c(cc3[C@@H](O[C@@H]3O[C@@H]5CO[C@@H](C)O[C@H]5[C@H](O)[C@H]3O)[C@H]3COC(=O)[C@H]23)OCO4)cc(OC)c1O [Etoposide] (first compound max 10 µM, 7x7, partner max 10 µM)
[1]
  Bliss excess: 0.122
[2]
  combination Emax: 0.223
[3]
  combination Emax: 0.945
GAK (Melanoma)
  combination Emax: 0.525
[4]
  combination Emax: 0.28
IST-MEL1 (Melanoma)
  combination Emax: 0.638
[5]
  combination Emax: 0.878
[6]
  combination Emax: 0.483
[7]
  combination Emax: 1
[8]
  combination Emax: 0.842
[9]
  combination Emax: 0.985
NCI-H226 (Mesothelioma)
  combination Emax: 0.332
[10]
  combination Emax: 0.56
[11]
  combination Emax: 0.555

## C[C@@H](Nc1cc(F)cc(F)c1)c1cc(C(=O)N(C)C)cc2c(=O)cc(N3CCOCC3)oc12 [AZD8186] + C1CN(CCC1(C(=O)N[C@@H](CCO)C2=CC=C(C=C2)Cl)N)C3=NC=NC4=C3C=CN4 [AZD5363] (first compound max 10 µM, 7x7, partner max 10 µM)
[1]
  Bliss excess: -0.0583
[2]
  combination Emax: 0.323
[3]
  combination Emax: 0.589
GAK (Melanoma)
  combination Emax: 0.261
[4]
  combination Emax: 0.215
IST-MEL1 (Melanoma)
  combination Emax: 0.408
[5]
  combination Emax: 0.249
[6]
  combination Emax: 0.834
[7]
  combination Emax: 0.547
[8]
  combination Emax: 0.223
[9]
  combination Emax: 0.485
NCI-H226 (Mesothelioma)
  combination Emax: 0.295
[10]
  combination Emax: 0.537
[11]
  combination Emax: 0.416

## CS(=O)(=O)CCNCc1ccc(-c2ccc3ncnc(Nc4ccc(OCc5cccc(F)c5)c(Cl)c4)c3c2)o1 [Lapatinib] + Cn1cnc2c(F)c(Nc3ccc(Br)cc3Cl)c(C(=O)NOCCO)cc21 [Selumetinib] (first compound max 10 µM, 7x7, partner max 10 µM)
[1]
  Bliss excess: 0.0641
[2]
  combination Emax: 0.909
[3]
  combination Emax: 0.55
GAK (Melanoma)
  combination Emax: 0.722
[4]
  combination Emax: 0.318
IST-MEL1 (Melanoma)
  combination Emax: 0.543
[5]
  combination Emax: 0.382
[6]
  combination Emax: 0.389
[7]
  combination Emax: 0.437
[8]
  combination Emax: 0.489
[9]
  combination Emax: 0.419
NCI-H226 (Mesothelioma)
  combination Emax: 0.228
[10]
  combination Emax: 0.988
[11]
  combination Emax: 0.508

## CS(=O)(=O)CCNCc1ccc(-c2ccc3ncnc(Nc4ccc(OCc5cccc(F)c5)c(Cl)c4)c3c2)o1 [Lapatinib] + NC1(c2ccc(-c3nc4ccn5c(=O)[nH]nc5c4cc3-c3ccccc3)cc2)CCC1 [MK-2206] (first compound max 10 µM, 7x7, partner max 10 µM)
[1]
  Bliss excess: -0.0389
[12]
  Bliss excess: 0.0885
[13]
  Bliss excess: -0.045
[14]
  Bliss excess: 0.0285
[15]
  Bliss excess: 0.0808
[2]
  combination Emax: 0.614
[3]
  combination Emax: 0.895
GAK (Melanoma)
  combination Emax: 0.872
[4]
  combination Emax: 0.487
IST-MEL1 (Melanoma)
  combination Emax: 0.886
[5]
  combination Emax: 0.275
[6]
  combination Emax: 0.972
[7]
  combination Emax: 0.671
[8]
  combination Emax: 0.926
[9]
  combination Emax: 0.909
NCI-H226 (Mesothelioma)
  combination Emax: 0.164
[16]
  combination Emax: 0.822
[10]
  combination Emax: 0.964
[17]
  combination Emax: 0.808
[11]
  combination Emax: 0.912

## Cc1c2c(nn1C)CSCc1cc(n(C)n1)CSc1cc(c3ccccc3c1)OCCCc1c(C(=O)O)n(C)c3c-2c(Cl)ccc13 [AZD5991] + CC(=O)O[C@H]1C(=O)[C@@]2(C)[C@H]([C@H](OC(=O)c3ccccc3)[C@]3(O)C[C@H](OC(=O)[C@H](O)[C@@H](NC(=O)c4ccccc4)c4ccccc4)C(C)=C1C3(C)C)[C@]1(OC(C)=O)CO[C@@H]1C[C@@H]2O [Paclitaxel] (first compound max 1 µM, 7x7, partner max 3 µM)
[1]
  Bliss excess: -0.0288
[2]
  combination Emax: 0.686
[3]
  combination Emax: 0.912
GAK (Melanoma)
  combination Emax: 0.548
[4]
  combination Emax: 0.199
IST-MEL1 (Melanoma)
  combination Emax: 0.587
[5]
  combination Emax: 0.965
[6]
  combination Emax: 0.838
[7]
  combination Emax: 1
[8]
  combination Emax: 0.867
[9]
  combination Emax: 1
NCI-H226 (Mesothelioma)
  combination Emax: 0.378
[10]
  combination Emax: 0.737
[11]
  combination Emax: 0.672

## O=C(c1cc(Cc2n[nH]c(=O)c3ccccc23)ccc1F)N1CCN(C(=O)C2CC2)CC1 [Olaparib] + CC1(C)CCC(CN2CCN(c3ccc(C(=O)NS(=O)(=O)c4ccc(NCC5CCOCC5)c([N+](=O)[O-])c4)c(Oc4cnc5[nH]ccc5c4)c3)CC2)=C(c2ccc(Cl)cc2)C1 [Venetoclax] (first compound max 10 µM, 7x7, partner max 1 µM)
[1]
  Bliss excess: -0.0331
[2]
  combination Emax: 0.148
[3]
  combination Emax: 0.305
GAK (Melanoma)
  combination Emax: 0.0703
[4]
  combination Emax: 0.155
IST-MEL1 (Melanoma)
  combination Emax: 0.628
[5]
  combination Emax: 0.135
[6]
  combination Emax: 0.179
[7]
  combination Emax: 0.249
[8]
  combination Emax: 0.453
[9]
  combination Emax: 0.456
NCI-H226 (Mesothelioma)
  combination Emax: 0.0963
[10]
  combination Emax: 0.163
[11]
  combination Emax: 0.115

## Cc1c2c(nn1C)CSCc1cc(n(C)n1)CSc1cc(c3ccccc3c1)OCCCc1c(C(=O)O)n(C)c3c-2c(Cl)ccc13 [AZD5991] + CS(=O)(=O)CCNCc1ccc(-c2ccc3ncnc(Nc4ccc(OCc5cccc(F)c5)c(Cl)c4)c3c2)o1 [Lapatinib] (first compound max 1 µM, 7x7, partner max 10 µM)
[1]
  Bliss excess: -0.0211
[2]
  combination Emax: 0.483
[3]
  combination Emax: 0.514
GAK (Melanoma)
  combination Emax: 0.352
[4]
  combination Emax: 0.297
IST-MEL1 (Melanoma)
  combination Emax: 0.295
[5]
  combination Emax: 0.15
[6]
  combination Emax: 0.558
[7]
  combination Emax: 1
[8]
  combination Emax: 0.535
[9]
  combination Emax: 0.977
NCI-H226 (Mesothelioma)
  combination Emax: 0.145
[10]
  combination Emax: 0.981
[11]
  combination Emax: 0.289

## C[C@@H](Oc1cc(-c2cnn(C3CCNCC3)c2)cnc1N)c1c(Cl)ccc(F)c1Cl [Crizotinib] + Cn1cnc2c(F)c(Nc3ccc(Br)cc3Cl)c(C(=O)NOCCO)cc21 [Selumetinib] (first compound max 10 µM, 7x7, partner max 10 µM)
[1]
  Bliss excess: 0.0259
[2]
  combination Emax: 0.439
[3]
  combination Emax: 0.421
GAK (Melanoma)
  combination Emax: 0.851
[4]
  combination Emax: 0.245
IST-MEL1 (Melanoma)
  combination Emax: 0.454
[5]
  combination Emax: 0.838
[6]
  combination Emax: 0.275
[7]
  combination Emax: 0.991
[8]
  combination Emax: 0.791
[9]
  combination Emax: 0.937
NCI-H226 (Mesothelioma)
  combination Emax: 0.393
[10]
  combination Emax: 0.665
[11]
  combination Emax: 0.823
